Test results from US10493077B2, “Fused imidazo-piperidine JAK inhibitor compound” (THERAVANCE BIOPHARMA R&D IP, LLC, priority 2017, dated 2019).
Where two headings read alike, the source gives them in different places.

Columns and labels:
[1] = target: T1, JAK3 (Homo sapiens, UniProt P52333); experiment: LanthaScreen JAK biochemical assay, JAK3; conditions: read-out: JAK 3 pKi (converted)
T1 construct: GST; purchased Life Technologies
Description: A panel of four LanthaScreen JAK biochemical assays (JAK1, 2, 3 and Tyk2) were carried in a common kinase reaction buffer (50 mM HEPES, pH 7.5, 0.01% Brij-35, 10 mM MgCl2, and 1 mM EGTA). Recombinant GST-tagged JAK enzymes and a GFP-tagged STAT1 peptide substrate were obtained from Life Technologies.
Serially diluted compound was pre-incubated with each of the four JAK enzymes and the substrate in white 384-well microplates (Corning) at ambient temperature for 1 h. ATP was subsequently added to initiate the kinase reactions in 10 μL total volume, with 1% DMSO. […] The plates were allowed to incubate at ambient temperature for 1 h before being read on the EnVision reader (Perkin Elmer). Emission ratio signals (520 nm/495 nm) were recorded and utilized to calculate the percent inhibition values based on DMSO and background controls.
For dose-response analysis, percent inhibition data were plotted vs. compound concentrations, and IC50 values were determined from a 4-parameter robust fit model with the Prism software (GraphPad Software). Results were expressed as pIC50 (negative logarithm of IC50) and subsequently converted to pKi (negative logarithm of dissociation constant, Ki) using the Cheng-Prusoff equation.

[2] = tested on: IL-6, IL-2, and IFNγ signaling; experiment: Cellular assays of Assays 3 to 6 (summary statement); assay type: cell-based; conditions: Homo sapiens, cellular assays described in Assays 3 to 6
Description: (§1) The potency of the test compound for inhibition of interleukin-2 (IL-2)/anti-CD3 stimulated interferon gamma (IFNγ) was measured in human peripheral blood mononuclear cells (PBMCs) isolated from human whole blood (Stanford Blood Center). Because IL-2 signals through JAK, this assay provides a measure of JAK cellular potency.
as §1, with “STAT5 phosphorylation” for “interferon gamma (IFNγ)”, “measured in CD4-positive (CD4+) T cells” for “measured”, “Center) using flow cytometry.” for “Center).”
The potency of the test compound for inhibition of interleukin-6 (IL-6) stimulated CCL2 (MCP-1) production was measured in human peripheral blood mononuclear cells (PBMCs) isolated from human whole blood (Stanford Blood Center). Because IL-6 signals through JAK, this assay provides a distal measure of JAK cellular potency.
The potency of the test compound for inhibition of interferon gamma (IFNγ) stimulated STAT1 phosphorylation was measured in CD14-positive (CD14+) monocytes derived from human whole blood (Stanford Blood Center) using flow cytometry. Because IFNγ signals through JAK, this assay provides a measure of JAK cellular potency.

[3] = Dermal pharmacokinetics in mini-pig skin; assay type: in vivo; conditions: model cream and ointment formulations, without detectable plasma exposure
Source text: The objective of this assay was to determine the epidermal, dermal and plasma pharmacokinetics of a test compound following a 24 hr exposure to intact mouse or mini-pig skin.
Twenty-four hours prior to dosing the hair was shaved from the back of 25 g male Balb/c mice exposing an area at of least 6 cm^2 (about 10% of body surface) and, in a separate experiment, of 10 kg Gottingen mini-pigs exposing an area of at least 450 cm^2 (about 10% of body surface). At time zero, following isoflurane anesthesia, the test compound was applied to the back of mice or mini-pigs at a dose of 25 μL/cm^2. The skin was covered with an adhesive cover to prevent loss of compound to the cage or bedding.
Following 24 h exposure, the backs were gently washed with soap and water to remove non-absorbed drug and patted dry. Immediately following this washing, blood was drawn by cardiac puncture from the mice and via venipuncture from the mini-pigs. The outer skin (stratum corneum) was then removed by adhesive tape stripping. Upon exposure of the epidermis a 0.5 cm punch biopsy was taken. The epidermis and dermis were quickly separated, weighed and snap frozen. […]
Epidermis and dermis samples were homogenized in 1:10 (w/v) water using a Covaris ultrasonic homogenizer. Samples were extracted in 3 volumes of acetonitrile and quantified against a standard curve via LC-MS analysis.

[4] = target: T2, PLK4 (Homo sapiens, UniProt O00444); experiment: Kinome screen, PLK4; assay type: binding; conditions: screened at 1 μM
T2 construct: made in house; host or cells: T7 phage in E. coli (BL21-derived) or HEK-293
T2 sequence (O00444 whole entry): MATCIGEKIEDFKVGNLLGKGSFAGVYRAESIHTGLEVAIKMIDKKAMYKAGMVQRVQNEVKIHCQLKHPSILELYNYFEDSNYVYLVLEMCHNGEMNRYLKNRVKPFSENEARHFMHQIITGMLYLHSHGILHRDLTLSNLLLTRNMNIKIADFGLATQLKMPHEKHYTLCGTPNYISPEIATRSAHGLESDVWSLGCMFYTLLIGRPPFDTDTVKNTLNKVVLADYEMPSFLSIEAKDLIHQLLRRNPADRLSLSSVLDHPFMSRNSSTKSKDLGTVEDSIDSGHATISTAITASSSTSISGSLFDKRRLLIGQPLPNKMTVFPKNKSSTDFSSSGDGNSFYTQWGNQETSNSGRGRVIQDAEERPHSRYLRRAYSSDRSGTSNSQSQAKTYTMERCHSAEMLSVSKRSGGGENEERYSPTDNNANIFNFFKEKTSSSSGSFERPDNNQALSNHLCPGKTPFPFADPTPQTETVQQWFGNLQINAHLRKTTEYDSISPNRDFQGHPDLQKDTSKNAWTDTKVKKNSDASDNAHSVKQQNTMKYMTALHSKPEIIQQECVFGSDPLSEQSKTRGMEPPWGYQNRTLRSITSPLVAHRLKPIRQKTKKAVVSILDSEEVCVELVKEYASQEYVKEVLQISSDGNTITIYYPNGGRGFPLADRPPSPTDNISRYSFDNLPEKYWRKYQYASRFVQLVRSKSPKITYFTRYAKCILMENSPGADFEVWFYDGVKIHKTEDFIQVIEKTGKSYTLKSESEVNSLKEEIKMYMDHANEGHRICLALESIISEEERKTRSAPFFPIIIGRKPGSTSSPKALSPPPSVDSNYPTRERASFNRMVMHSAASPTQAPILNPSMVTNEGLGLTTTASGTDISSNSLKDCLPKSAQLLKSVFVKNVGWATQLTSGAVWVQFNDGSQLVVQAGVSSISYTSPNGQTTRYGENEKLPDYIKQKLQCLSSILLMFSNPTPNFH
Description: Kinase-tagged T7 phage strains were grown in parallel in 24-well blocks in an E. coli host derived from the BL21 strain. E. coli were grown to log-phase and infected with T7 phage from a frozen stock (multiplicity of infection=0.4) and incubated with shaking at 32° C. until lysis (90-150 minutes). The lysates were centrifuged (6,000×g) and filtered (0.2 μm) to remove cell debris. The remaining kinases were produced in HEK-293 cells and subsequently tagged with DNA for qPCR detection.
Streptavidin-coated magnetic beads were treated with biotinylated small molecule ligands for 30 minutes at room temperature to generate affinity resins for kinase assays. The liganded beads were blocked with excess biotin and washed with blocking buffer (SeaBlock (Pierce), 1% BSA, 0.05% Tween 20, 1 mM DTT) to remove unbound ligand and to reduce non-specific phage binding. […] Test compounds were prepared as 40× stocks in 100% DMSO and directly diluted into the assay. All reactions were performed in polypropylene 384-well plates in a final volume of 0.04 ml. […] The beads were then re-suspended in elution buffer (1×PBS, 0.05% Tween 20, 0.5 μM non-biotinylated affinity ligand) and incubated at room temperature with shaking for 30 minutes. The kinase concentration in the eluates was measured by qPCR.

T1 sequence (P52333 whole entry): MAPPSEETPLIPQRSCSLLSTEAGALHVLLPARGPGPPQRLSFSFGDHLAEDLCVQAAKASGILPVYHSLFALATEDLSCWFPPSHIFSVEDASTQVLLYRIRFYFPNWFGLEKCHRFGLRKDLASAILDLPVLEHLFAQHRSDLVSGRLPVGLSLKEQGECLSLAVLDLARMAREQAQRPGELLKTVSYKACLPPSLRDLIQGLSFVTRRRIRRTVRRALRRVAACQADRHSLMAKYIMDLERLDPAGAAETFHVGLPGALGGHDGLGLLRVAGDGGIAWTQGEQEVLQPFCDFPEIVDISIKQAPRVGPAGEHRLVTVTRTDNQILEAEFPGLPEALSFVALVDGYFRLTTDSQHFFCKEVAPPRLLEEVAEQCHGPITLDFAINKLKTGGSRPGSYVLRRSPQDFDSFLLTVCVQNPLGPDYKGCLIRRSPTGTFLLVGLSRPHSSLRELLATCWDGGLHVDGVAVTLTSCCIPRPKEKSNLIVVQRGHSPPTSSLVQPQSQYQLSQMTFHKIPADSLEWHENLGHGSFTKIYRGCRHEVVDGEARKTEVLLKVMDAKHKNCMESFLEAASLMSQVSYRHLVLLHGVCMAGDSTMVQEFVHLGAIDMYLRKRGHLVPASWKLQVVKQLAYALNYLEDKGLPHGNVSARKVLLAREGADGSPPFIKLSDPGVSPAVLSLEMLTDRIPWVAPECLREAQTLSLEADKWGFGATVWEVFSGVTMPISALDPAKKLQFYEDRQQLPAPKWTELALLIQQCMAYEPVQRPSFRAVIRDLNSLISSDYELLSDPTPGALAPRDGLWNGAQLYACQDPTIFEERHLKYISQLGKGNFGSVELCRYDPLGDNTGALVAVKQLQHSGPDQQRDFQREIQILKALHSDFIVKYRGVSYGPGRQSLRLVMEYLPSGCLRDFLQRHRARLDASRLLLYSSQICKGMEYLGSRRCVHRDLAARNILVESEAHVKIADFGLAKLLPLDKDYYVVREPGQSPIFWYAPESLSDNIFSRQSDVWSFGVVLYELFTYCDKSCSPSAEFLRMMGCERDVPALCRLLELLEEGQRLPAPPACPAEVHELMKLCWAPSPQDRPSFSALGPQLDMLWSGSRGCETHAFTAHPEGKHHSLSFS

CCc1cc(O)c(F)cc1-c1cc(F)c2c(-c3nc4c([nH]3)CCN(C(=O)CN3CCOCC3)C4)n[nH]c2c1 [Compound 1, 1-(2-(6-(2-ethyl-5-fluoro-4-hydroxyphenyl)-4-fluoro-1H-indazol-3-yl)-1,4,6,7-tetrahydro-5H-imidazo[4,5-c]pyridin-5-yl)-2-morpholinoethan-1-one]
Ki [1]: 0.2 nM | IC50 ([2]; read-out: IC50 for inhibition of IL-6, IL-2, and IFNγ signaling): ≤ 400 nM | IC50 ([2]; read-out: pIC50 for inhibition of IL-6, IL-2, and IFNγ signaling (converted)): ≤ 398 nM | duration of sustained dermal levels [3]: at least 7 days | inhibition at 1 µM [4]: 58%
